This is an account of results in patent publication US7160894B2, “Tricyclic compound” (Asahi Kasei Pharma Corporation, priority 2003, dated 2007).

The test deals with intraocular pressure. The experiment in a line: Intraocular pressure reducing action (Test Example 4). Format: in vivo, Japanese white rabbit. To be noted: rabbit, 50 μl of aqueous solution dropped to the left eye. On the procedure: A Japanese white rabbit having a body weight of about 2 kg was placed in a positioner and naturalized for one week before the experiment. An ophthalmologic local anesthesant (Benoxil) was administered to the left eye, and then intraocular pressure was measured by using a tonometer (Classic 30, Solan). The initial value of the intraocular pressure was measured, then 50 μl of an aqueous solution of a test compound was dropped to the left eye at various concentrations, and the intraocular pressure was measured with passage of time.
Regarding `Cl.c1cc2c3c(cncc3c1)CCN2C1CCNC1` (centres unmarked) [Example 1], the “intraocular pressure reducing action” value was “significant intraocular pressure reducing action”.

Regarding `Cl.OCCN1CCC(N2CCc3cncc4cccc2c34)CC1` [Example 12], the “intraocular pressure reducing action” value is listed as “significant intraocular pressure reducing action”. Under `Cl.OCCCN1CCC(N2CCc3cncc4cccc2c34)CC1` [Example 13] stands “significant intraocular pressure reducing action”. As for `Cl.N#CCN1CCC(N2CCc3cncc4cccc2c34)CC1` [Example 18], the “intraocular pressure reducing action” value is recorded as “significant intraocular pressure reducing action”. Consider `Cl.N[C@H]1CC[C@H](N2CCc3cncc4cccc2c34)CC1` [Example 21], for which the “intraocular pressure reducing action” value is recorded as “significant intraocular pressure reducing action”.

Turning to `Cl.OCCN[C@H]1CC[C@H](N2CCc3cncc4cccc2c34)CC1` [Example 22], the “intraocular pressure reducing action” value was “significant intraocular pressure reducing action”. Turning to `Cl.N[C@H]1CC[C@@H](N2CCc3cncc4cccc2c34)CC1` [Example 31], the “intraocular pressure reducing action” value was “significant intraocular pressure reducing action”. On to `CC(=O)NCCCN1CCC(N2CCc3cncc4cccc2c34)CC1` [Example 47], for which the “intraocular pressure reducing action” value is “significant intraocular pressure reducing action”. For `CN1CCC(N2CCc3cncc4cccc2c34)CC1` [Example 52], the “intraocular pressure reducing action” value is given as “significant intraocular pressure reducing action”.

As to `CNCCN1CCC(N2CCc3cncc4cccc2c34)CC1` [Example 57], the “intraocular pressure reducing action” value was “significant intraocular pressure reducing action”. For `Cl.Oc1ncc2c3c(cccc13)N(C1CCNCC1)CC2` [Example 62], the “intraocular pressure reducing action” value is listed as “significant intraocular pressure reducing action”. Under `Cl.OCCN1CCC(N2CCc3cnc(O)c4cccc2c34)CC1` [Example 63] stands “significant intraocular pressure reducing action”; under `Cl.OCCCN1CCC(N2CCc3cnc(O)c4cccc2c34)CC1` [Example 64], “significant intraocular pressure reducing action”. For `CC(=O)NCCN1CCC(N2CCc3cnc(O)c4cccc2c34)CC1` [Example 67], the “intraocular pressure reducing action” value is on record as “significant intraocular pressure reducing action”.

Take `CCC(=O)NCCN1CCC(N2CCc3cnc(O)c4cccc2c34)CC1` [Example 68]: the “intraocular pressure reducing action” value was “significant intraocular pressure reducing action”. In the case of `CC(=O)NCCCN1CCC(N2CCc3cnc(O)c4cccc2c34)CC1` [Example 72], the “intraocular pressure reducing action” value is listed as “significant intraocular pressure reducing action”. Regarding `CCC(=O)NCCCN1CCC(N2CCc3cnc(O)c4cccc2c34)CC1` [Example 73], the “intraocular pressure reducing action” value is given as “significant intraocular pressure reducing action”. For `CC(C)(C)C(=O)NCCCN1CCC(N2CCc3cnc(O)c4cccc2c34)CC1` [Example 76], the “intraocular pressure reducing action” value is given as “significant intraocular pressure reducing action”. For `N[C@H]1CC[C@H](N2CCc3cnc(O)c4cccc2c34)CC1` [Example 77], the “intraocular pressure reducing action” value is “significant intraocular pressure reducing action”.

Consider `Cl.OCCN[C@H]1CC[C@H](N2CCc3cnc(O)c4cccc2c34)CC1` [Example 78], for which the “intraocular pressure reducing action” value was “significant intraocular pressure reducing action”. For `Cl.OCCCN[C@H]1CC[C@H](N2CCc3cnc(O)c4cccc2c34)CC1` [Example 79], the “intraocular pressure reducing action” value was “significant intraocular pressure reducing action”. `CC(=O)NCCN[C@H]1CC[C@H](N2CCc3cnc(O)c4cccc2c34)CC1.Cl` [Example 82]: the “intraocular pressure reducing action” value is “significant intraocular pressure reducing action”. Consider `CCC(=O)NCCN[C@H]1CC[C@H](N2CCc3cnc(O)c4cccc2c34)CC1.Cl` [Example 83], for which the “intraocular pressure reducing action” value is reported as “significant intraocular pressure reducing action”.
